Measurements as given in PubChem BioAssay (NCI).
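Following 48 hours of exposure in 96-well plates, responses at five concentrations were used to interpolate endpoints linearly. GI50 marks 50% less growth. TGI is the concentration that stops growth completely.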

Key:
Experiment in all cases: NCI anticancer screen, dose series, 48 h
CCRF-CEM leukemia = tested on: CCRF-CEM leukemia
DU-145 prostate = tested on: DU-145 prostate
IGROV1 ovarian = tested on: IGROV1 ovarian
MCF7 breast = tested on: MCF7 breast
MDA-MB-231 breast = tested on: MDA-MB-231 breast
OVCAR-3 ovarian = tested on: OVCAR-3 ovarian
SF-268 CNS = tested on: SF-268 CNS
SF-295 CNS = tested on: SF-295 CNS
SK-MEL-2 melanoma = tested on: SK-MEL-2 melanoma
SNB-19 CNS = tested on: SNB-19 CNS

For `COc1cc2c3c(n(C)c(=O)c2cc1OC)-c1cc2c(cc1/C3=C\CNCCCN)OCO2`, the GI50 (CCRF-CEM leukemia) was 23.9 nM, the TGI (CCRF-CEM leukemia) was 150 nM and the GI50 (DU-145 prostate) was 1150 nM. For the same molecule, the TGI (DU-145 prostate) was 12800 nM, the GI50 (IGROV1 ovarian) was 284 nM and the GI50 (MCF7 breast) was 1040 nM. For the same molecule, the TGI (MCF7 breast) was 16500 nM, the GI50 (MDA-MB-231 breast) was 333 nM and the TGI (MDA-MB-231 breast) was 2010 nM. The GI50 (OVCAR-3 ovarian) was 1370 nM, the TGI (OVCAR-3 ovarian) was 7660 nM and the GI50 (SF-268 CNS) was 762 nM. It also gave a TGI (SF-268 CNS) of 10800 nM, a GI50 (SF-295 CNS) of 1080 nM and a TGI (SF-295 CNS) of 15900 nM. For the same molecule, the GI50 (SK-MEL-2 melanoma) was 2330 nM, the GI50 (SNB-19 CNS) was 261 nM and the TGI (SNB-19 CNS) was 10400 nM.
